Reference: patent publication US12338219B2, “Antimalarial agents” (Merck Sharp & Dohme LLC, priority 2019, dated 2025)

System: parasites (ring stage parasites, parasite growth)
Assay: Parasite LDH growth assay (Parasite Assay), antiparasite potency
Assay type: cell-based
Conditions: 72 hours growth, LDH readout
Description: Assessing Antiparasite Potency in a Parasite LDH Growth Assay (Parasite Assay) The parasite stock was maintained at […] in RPMI-Hepes media buffered with sodium bicarbonate and supplemented with […]. […] On the day of assay set up, a blood smear of the parasite culture was Giemsa stained and counted. The parasitemia was adjusted to 0.7% rings and the haematocrit was diluted to 2% in RPMI-Hepes media buffered with sodium bicarbonate and supplemented with 500 heat inactivated human serum and 0.5% albumax. 30 ul of diluted parasites are then added into 10 ul of media+compound in pre-prepared Greiner TC assay plates. Parasite assay plates were placed in gassed humidified boxes in single layer and allowed to incubate at 37° C. for 72 hours. After 72 hours growth, assay plates are sealed with parafilm and frozen flat, in single file at −80° C. overnight. On the following day, assay plates are allowed to thaw at room temperature for 4 hours to which an LDH assay is performed to measure parasite growth.

## CCC1(CC)CC(NC(=O)[C@@H]2C[C@H]2[C@@H](CCOC)N2C(=N)NC(C)(C)CC2=O)c2ccccc2O1 (some centres unmarked) [Example 92A]
72 h, Table 3
  EC50: 7.6 nM

## COCC[C@H]([C@@H]1C[C@H]1C(=O)N[C@H]1CC(C)(C)Oc2cccc(Cl)c21)N1C(=N)NC(C)(C)CC1=O [Example 116A]
72 h, Table 3
  EC50: 0.8 nM

## CCC1(CC)CC(=O)N(C[C@@H]2C(C)[C@H]2C(=O)N[C@@H]2c3ccccc3CC2(C)O)C(=N)N1 (single isomer, unassigned) [Example 29A]
Table 3
  EC50: 203 nM

## CC1[C@@H](C(c2cccnc2)N2C(=N)NC(C)(C)CC2=O)[C@@H]1C(=O)N[C@H]1C[C@H](C(F)(F)F)Oc2ccccc21 (single isomer, unassigned) [Example 54A]
Table 3
  EC50: 1 nM

## CCC1(CC)CC(=O)N(C[C@H]2C[C@@H]2C(=O)N[C@@H](C)c2ccccc2)C(=N)N1 [Example 3A]
72 h, Table 3
  EC50: 234 nM

## CC1(C)CC(=O)N(C[C@@H]2C[C@H]2C(=O)N[C@H]2CC(C)(C)Oc3cccc(F)c32)C(=N)N1 [Example 87]
72 h, Table 3
  EC50: 160 nM

## CCC1(CC)CC(=O)N(C[C@@H]2C[C@H]2C(=O)N[C@H]2CCOc3ccccc32)C(=N)N1 [Example 4B]
72 h, Table 3
  EC50: 26 nM

## COCC[C@H]([C@@H]1C[C@H]1C(=O)N[C@@H]1CC(C)(C)Oc2cc(OC(F)(F)F)ccc21)N1C(=N)NC(C)(C)CC1=O [Example 134A]
72 h, Table 3
  EC50: 71 nM

## CC[C@]1(C)CC(=O)N([C@H](CCOC)[C@@H]2C[C@H]2C(=O)NC2CC(C)(C)Oc3ccc(F)cc32)C(=N)N1 (single isomer, unassigned) [Example 130A]
Table 3
  EC50: 0.9 nM

## CCC1(CC)CC(=O)N([C@H](CCOC)[C@@H]2C[C@H]2C(=O)NC2CC(C)(C)Oc3cccc(Cl)c32)C(=N)N1 (some centres unmarked) [Example 149B]
Table 4 (unit inferred)
  EC50: 1.2 nM

## CC1(C)CC(=O)N([C@H](c2cccnc2)[C@@H]2C[C@H]2C(=O)NC2CC(C)(C)Oc3c(F)cccc32)C(=N)N1 (some centres unmarked) [Example 93A]
72 h, Table 3
  EC50: 3.3 nM

## CC1(C)CC(=O)N(C[C@@H]2C[C@H]2C(=O)N[C@H]2CC(C)(C)Oc3ccc(Cl)cc32)C(=N)N1 [Example 95]
72 h, Table 3
  EC50: 110 nM

## COCC[C@H]([C@@H]1C[C@H]1C(=O)N[C@@H]1CC(C)(C)Oc2cccc(OC)c21)N1C(=N)NC(C)(C)CC1=O [Example 74A]
72 h, Table 3
  EC50: 33 nM

## CC1(C)CC(=O)N(C[C@@H]2C[C@H]2C(=O)NC2CC(C)(C)Oc3ccc(OC(F)(F)F)cc32)C(=N)N1 (some centres unmarked) [Example 125B]
Table 3
  EC50: 160 nM

## CC1(C)CC(=O)N([C@H](c2cccnc2)[C@@H]2C[C@H]2C(=O)NC2CC(C)(C)Oc3c(Cl)cccc32)C(=N)N1 (some centres unmarked) [Example 121A]
72 h, Table 3
  EC50: 2.5 nM

## CCC1(CC)CC(=O)N([C@H](c2cccnc2)[C@@H]2C(C)[C@H]2C(=O)N[C@H]2C[C@H](C(F)(F)F)Oc3ccccc32)C(=N)N1 (some centres unmarked) [Example 55A]
72 h, Table 3
  EC50: 0.8 nM

## CC1C[C@H](NC(=O)[C@@H]2C[C@H]2CN2C(=N)NC(C)(C)CC2=O)c2cc(F)ccc2O1 (some centres unmarked) [Example 139B]
Table 3
  EC50: 130 nM

## CCC1(CC)CC(=O)N(C(CC(C)OC)[C@@H]2C[C@H]2C(=O)N[C@H]2CC(C)(C)Oc3ccccc32)C(=N)N1 (single isomer, unassigned) [Example 142C]
Table 4 (unit inferred)
  EC50: 205 nM

## COCC[C@H]([C@@H]1C[C@H]1C(=O)NC1CC(C)(C(C)C)Oc2ccccc21)N1C(=N)NC(C)(C)CC1=O (single isomer, unassigned) [Example 80D]
Table 3
  EC50: 21 nM

## CCC1(CC)CC(=O)N(CC2CC2C(=O)N[C@H]2CCOc3ccccc32)C(=N)N1 (some centres unmarked) [Example 4C]
72 h, Table 3
  EC50: 85 nM

## COCC[C@H]([C@@H]1C[C@H]1C(=O)N[C@H]1CC(C)(C)Oc2ccc(F)cc21)N1C(=N)NC(C)(C)CC1=O [Example 72B]
72 h, Table 3
  EC50: 2.5 nM

## CC1(C)CC(=O)N(C(c2cccnc2)[C@H]2[C@H](C(=O)N[C@H]3CC(C)(C)Oc4ccccc43)C2(C)C)C(=N)N1 (some centres unmarked) [Example 49A]
72 h, Table 3
  EC50: 20 nM

## CC1(C)CC(=O)N([C@H](c2cncc(Cl)c2)[C@@H]2C[C@H]2C(=O)N[C@@H]2c3ccccc3OC(C)(C)[C@H]2O)C(=N)N1 [Example 59]
72 h, Table 3
  EC50: 3.8 nM

## COCC[C@H]([C@@H]1C[C@H]1C(=O)NC1CC(C)(COC)Oc2ccccc21)N1C(=N)NC(C)(C)CC1=O (single isomer, unassigned) [Example 82A]
Table 3
  EC50: 24.4 nM

## COCC[C@H]([C@@H]1C[C@H]1C(=O)NC1CC(C)(C)Oc2c(Cl)cc(Cl)cc21)N1C(=N)NC(C)(C)CC1=O (some centres unmarked) [Example 106B]
Table 3
  EC50: 10 nM

## COc1ccc([C@H]([C@@H]2C[C@H]2C(=O)N[C@H]2C[C@H](C(F)(F)F)Oc3ccccc32)N2C(=N)NC(C)(C)CC2=O)cn1 [Example 37]
72 h, Table 3
  EC50: 1.2 nM

## CC(C)C1(C)CC(NC(=O)[C@@H]2C[C@H]2CN2C(=N)NC(C)(C)CC2=O)c2ccccc2O1 (single isomer, unassigned) [Example 79B]
Table 3
  EC50: 275 nM

## CCC1(CC)CC(=O)N([C@H](c2cccnc2)[C@@H]2C[C@H]2C(=O)N[C@@H]2c3ccccc3OC(C)(C)[C@H]2O)C(=N)N1 [Example 11B]
72 h, Table 3
  EC50: 24 nM

## CCC1(CC)CC(=O)N([C@H](CCOC)[C@@H]2C[C@H]2C(=O)N[C@@H]2c3ccccc3C[C@H]2O)C(=N)N1 [Example 13]
72 h, Table 3
  EC50: 24 nM

## COCC[C@H]([C@@H]1C[C@H]1C(=O)NC1CC(C)(COC)Oc2ccccc21)N1C(=N)NC(C)(C)CC1=O (single isomer, unassigned) [Example 82C]
Table 3
  EC50: 53 nM

## COCC[C@H]([C@@H]1C[C@H]1C(=O)NC1CC(C)(C)Oc2c(Cl)cc(Cl)cc21)N1C(=N)NC(C)(C)CC1=O (some centres unmarked) [Example 106A]
72 h, Table 3
  EC50: 7.4 nM

## CC1(C)CC(=O)N([C@H](c2cccnc2)[C@@H]2C[C@H]2C(=O)N[C@H]2CC(C)(C)Oc3cc(Cl)ccc32)C(=N)N1 [Example 91A]
72 h, Table 3
  EC50: 0.8 nM

## COCC[C@H]([C@@H]1C[C@H]1C(=O)N[C@@H]1CC(C)(C)Oc2cccc(F)c21)N1C(=N)NC(C)(C)CC1=O [Example 88B]
72 h, Table 3
  EC50: 10 nM

## CC[C@]1(C)CC(=O)N([C@H](CCOC)[C@@H]2C[C@H]2C(=O)N[C@H]2C[C@H](C(F)(F)F)Oc3ccccc32)C(=N)N1 [Example 62B]
72 h, Table 3
  EC50: 0.8 nM

## CCC1(CC)CC(=O)N([C@H](CCOC)[C@@H]2C[C@H]2C(=O)N[C@@H]2c3ccccc3OCC2(C)C)C(=N)N1 [Example 19B]
72 h, Table 3
  EC50: 4.2 nM

## CCC1(CC)CC(=O)N(C[C@@H]2C[C@H]2C(=O)N[C@H]2CC(C)(C)Oc3ccc(F)cc32)C(=N)N1 [Example 7A]
72 h, Table 3
  EC50: 135 nM

## CCC1(CC)CC(=O)N([C@H](c2cccnc2)[C@@H]2C[C@H]2C(=O)N[C@H]2CC(C)(C)Oc3ccccc32)C(=N)N1 [Example 2, (1R,2R)-2-((S)-(4,4-diethyl-2-imino-6-oxotetrahydropyrimidin-1(2H)-yl)(pyridin-3-yl)methyl)-N—((S)-2,2-dimethylchroman-4-yl)cyclopropanecarboxamide]
72 h, Table 3
  EC50: 0.9 nM

## CCC1(CC)CC(=O)N([C@H](CCOC)[C@@H]2C[C@H]2C(=O)NC2CC(C)(C)Oc3cc(Cl)ccc32)C(=N)N1 (single isomer, unassigned) [Example 147B]
Table 4 (unit inferred)
  EC50: 8.2 nM

## CCC1(CC)CC(=O)N(CC2C(C(=O)N[C@H]3C[C@H](C(F)(F)F)Oc4ccccc43)C2(F)F)C(=N)N1 (single isomer, unassigned) [Example 17B]
Table 3
  EC50: 20 nM

## CC1(C)CC(=O)N([C@H](c2cccnc2)[C@H]2[C@H](C(=O)N[C@H]3C[C@H](C(F)(F)F)Oc4ccccc43)C2(C)C)C(=N)N1 [Example 43A]
72 h, Table 3
  EC50: 4 nM

## CC[C@]1(C)CC(=O)N(C(c2cncc(F)c2)[C@@H]2C[C@H]2C(=O)NC2c3ccccc3OC(C(F)(F)F)C2O)C(=N)N1 (single isomer, unassigned) [Example 104A]
Table 3
  EC50: 4 nM
